Laboratory results: patent US8343458B2, “Probes for in vivo targeting of active cysteine proteases” (The Board of Trustees of the Leland Stanford Junior …, priority 2008, dated 2013)
“And” between values parts separate entries of the source, which are not always exact repeats. Identical values can stand only once.

What was measured:
Assay type in all cases: in vivo, mouse
[1] = system: MDA-MB-435 tumors; assay: Biodistribution in nude mice bearing subcutaneous MDA-MB-435 tumors; details: for Biodistribution: Blood / Biodistribution: Bone / Biodistribution: Brain / Biodistribution: Heart / Biodistribution: Intestines / Biodistribution: Kidney / Biodistribution: Liver / Biodistribution: Lung / Biodistribution: Muscle / Biodistribution: Pancreas / Biodistribution: Spleen / Biodistribution: Stomach / Biodistribution: Tumor / Tumor/Blood ratio / Tumor/Muscle ratio: MDA-MB-435 tumor mice, i.v. 740 kBq
Protocol: (§1) All animal studies were carried out in compliance with Federal and local institutional rules for the conduct of animal experimentation. Female athymic nude mice (nu/nu) were obtained from Charles River Laboratories (Boston, Mass.) at 7-8 weeks old and kept under sterile conditions. The nude mice were inoculated subcutaneously in the right shoulder with 2×10^6 cultured C2C12/Ras cells or 5×10^6 MDA-MB-435 cells. When the tumors reach 0.5-0.8 cm in diameter, the tumor bearing mice were subjected to in vivo biodistribution studies. For biodistribution studies, the mice bearing C2C12/Ras or MDA-MB-435 tumor xenografts (n=3 for each group) were injected with 740 KBq (20 μCi) of ^64Cu labeled tracer through the tail vein and sacrificed at different time points post injection (p.i.). Tumor and normal tissues of interest were removed and weighed, and their radioactivity was measured in a gamma-counter. The radioactivity uptake in the tumor and normal tissues was expressed as a percentage of the injected radioactive dose per gram of tissue (% ID/g).
(§2) We next examined the overall biodistribution of ^64Cu-Z-FK(DOTA)-AOMK using athymic nude mice carrying subcutaneously grafted C2C12/Ras and MDA-MB-435 tumors. […] Importantly, we observed rapid accumulation of radioactivity in the C2C12/Ras tumors expressing high levels of cysteine cathepsins (0.35±0.13% ID/g at 0.5 h p.i.). This activity remained in the tumors resulting in an uptake of 0.27±0.05% ID/g at 24 h p.i. For the MDA-MB-435 tumors with lower cysteine cathepsin expression, tumor uptake was approximately 2 fold lower at each time point relative to the C2C12/Ras tumors (P<0.05). […] The highest radioactivity was found in the liver due to high endogenous expression of various cysteine cathepsins. Moderate renal accumulation was also observed at all times in both tumor models.
(§3) Data are expressed as the percentage administered activity (injected dose) per gram of tissue (% ID/g) after intravenous injection of 740 kBq (20 μCi) of ^64Cu-Z-FK(DOTA)-AOMK at 0.5, 2, and 24 h pi (n=3). Significant lower tumor uptake and tumor/blood, tumor/muscle ratio in MDA-MB-435 breast cancer (P<0.05) were observed.

[2] = system: C2C12/Ras tumors; assay: Biodistribution in nude mice bearing subcutaneous C2C12/Ras tumors; details: for Biodistribution: Blood / Biodistribution: Bone / Biodistribution: Brain / Biodistribution: Heart / Biodistribution: Intestines / Biodistribution: Kidney / Biodistribution: Liver / Biodistribution: Lung / Biodistribution: Muscle / Biodistribution: Pancreas / Biodistribution: Spleen / Biodistribution: Stomach / Biodistribution: Tumor / Tumor/Blood ratio / Tumor/Muscle ratio: C2C12/Ras tumor mice, i.v. 740 kBq
Protocol: as §1, §2, §3

[3] = system: MDA-MB-435 tumor; assay: MicroPET imaging of MDA-MB-435 tumor-bearing mice; details: MDA-MB-435 tumor, 1, 4 and 28 hours post injection
Source text: FIG. 3 is a composite photograph showing mouse uptake of labeled probe, i.e., a series of photographs of imaged mice. For purposes of reproduction, the image is converted to black and white and reversed. Lightest to darkest is a range between 0% ID (injected dose)/g and 1% ID/g. […] Arrows indicate location of tumors.
We performed micro PET imaging of mice bearing the MDA-MB-435 and C2C12/Ras tumors. The static microPET images (5 or 10-min scan, three tumor bearing mice were used for each study) of ^64Cu-Z-FK(DOTA)-AOMK are illustrated in coronal images of the subcutaneously implanted tumor-bearing mice (FIG. 3). […] The tumor, indicated by the arrow, is not clearly illuminated.
PET imaging of tumor-bearing mice is performed on a microPET R4 rodent model scanner (Concorde Microsystems Inc, Knoxyille, Tenn.). The mice bearing C2C12/Ras and MDA-MB-435 tumors were injected with 5.55 MBq (150 μCi) of ^64Cu AOMK probe via the tail vein. At different times p.i., the mice were anesthetized with 2% isoflurane, and placed in the prone position and near the center of the field of view of microPET. The 5 or 10-min static scans were obtained and the images were reconstructed by a two-dimensional ordered subsets expectation maximum (OSEM) algorithm.

Biodistribution: Blood ([1]; 2 h p.i.): 0.29 ± 0.01 % ID/g
Biodistribution: Bone ([1]; 2 h p.i.): 0.18 ± 0.06 % ID/g
Biodistribution: Brain ([1]; 2 h p.i.): 0.04 ± 0.01 % ID/g
Biodistribution: Heart ([1]; 2 h p.i.): 0.43 ± 0.09 % ID/g
Biodistribution: Intestines ([1]; 2 h p.i.): 1.95 ± 1.24 % ID/g
Biodistribution: Kidney ([1]; 2 h p.i.): 1.11 ± 0.05 % ID/g
Biodistribution: Liver ([1]; 2 h p.i.): 2.64 ± 0.08 % ID/g
Biodistribution: Lung ([1]; 2 h p.i.): 0.72 ± 0.08 % ID/g
Biodistribution: Muscle ([1]; 2 h p.i.): 0.06 ± 0.00 % ID/g
Biodistribution: Pancreas ([1]; 2 h p.i.): 0.25 ± 0.05 % ID/g
Biodistribution: Spleen ([1]; 2 h p.i.): 0.31 ± 0.05 % ID/g
Biodistribution: Stomach ([1]; 2 h p.i.): 0.45 ± 0.07 % ID/g
Biodistribution: Tumor ([1]; 2 h p.i.): 0.18 ± 0.00 % ID/g
Tumor/Blood ratio ([1]; 2 h p.i.): 0.61 and 0.61 ± 0.02
Tumor/Muscle ratio ([1]; 2 h p.i.): 3.03 and 3.03 ± 0.20
Biodistribution: Blood ([1]; 24 h p.i.): 0.28 ± 0.13 % ID/g
Biodistribution: Bone ([1]; 24 h p.i.): 0.20 ± 0.20 % ID/g
Biodistribution: Brain ([1]; 24 h p.i.): 0.05 ± 0.01 % ID/g
Biodistribution: Heart ([1]; 24 h p.i.): 0.42 ± 0.15 % ID/g
Biodistribution: Intestines ([1]; 24 h p.i.): 0.35 ± 0.08 % ID/g
Biodistribution: Kidney ([1]; 24 h p.i.): 0.63 ± 0.08 % ID/g
Biodistribution: Liver ([1]; 24 h p.i.): 1.37 ± 0.19 % ID/g
Biodistribution: Lung ([1]; 24 h p.i.): 0.47 ± 0.08 % ID/g
Biodistribution: Muscle ([1]; 24 h p.i.): 0.06 ± 0.02 % ID/g
Biodistribution: Pancreas ([1]; 24 h p.i.): 0.18 ± 0.11 % ID/g
Biodistribution: Spleen ([1]; 24 h p.i.): 0.31 ± 0.21 % ID/g
Biodistribution: Stomach ([1]; 24 h p.i.): 0.34 ± 0.29 % ID/g
Biodistribution: Tumor ([1]; 24 h p.i.): 0.14 ± 0.05 % ID/g
Tumor/Blood ratio ([1]; 24 h p.i.): 0.54 ± 0.12
Tumor/Muscle ratio ([1]; 24 h p.i.): 2.21 ± 0.34
Tumor uptake in MDA-MB-435 tumors, fold lower relative to C2C12/Ras tumors ([1]; at each time point (2 h, 24 h), P<0.05): approximately 2 fold
Biodistribution: Blood ([2]; 0.5 h p.i.): 0.24 ± 0.07 % ID/g
Biodistribution: Bone ([2]; 0.5 h p.i.): 0.09 ± 0.02 % ID/g
Biodistribution: Brain ([2]; 0.5 h p.i.): 0.04 ± 0.03 % ID/g
Biodistribution: Heart ([2]; 0.5 h p.i.): 0.25 ± 0.02 % ID/g
Biodistribution: Intestines ([2]; 0.5 h p.i.): 1.84 ± 0.57 % ID/g
Biodistribution: Kidney ([2]; 0.5 h p.i.): 0.74 ± 0.29 % ID/g
Biodistribution: Liver ([2]; 0.5 h p.i.): 3.71 ± 1.04 % ID/g
Biodistribution: Lung ([2]; 0.5 h p.i.): 0.50 ± 0.17 % ID/g
Biodistribution: Muscle ([2]; 0.5 h p.i.): 0.06 ± 0.01 % ID/g
Biodistribution: Pancreas ([2]; 0.5 h p.i.): 0.25 ± 0.22 % ID/g
Biodistribution: Spleen ([2]; 0.5 h p.i.): 0.35 ± 0.24 % ID/g
Biodistribution: Stomach ([2]; 0.5 h p.i.): 0.63 ± 0.69 % ID/g
Biodistribution: Tumor ([2]; 0.5 h p.i.): 0.35±0.13 % ID/g
Tumor/Blood ratio ([2]; 0.5 h p.i.): 1.41 ± 0.32
Tumor/Muscle ratio ([2]; 0.5 h p.i.): 5.24 ± 1.35
Biodistribution: Blood ([2]; 2 h p.i.): 0.24 ± 0.03 % ID/g
Biodistribution: Bone ([2]; 2 h p.i.): 0.10 ± 0.01 % ID/g
Biodistribution: Brain ([2]; 2 h p.i.): 0.02 ± 0.00 % ID/g
Biodistribution: Heart ([2]; 2 h p.i.): 0.30 ± 0.08 % ID/g
Biodistribution: Intestines ([2]; 2 h p.i.): 1.38 ± 0.54 % ID/g
Biodistribution: Kidney ([2]; 2 h p.i.): 0.67 ± 0.19 % ID/g
Biodistribution: Liver ([2]; 2 h p.i.): 3.59 ± 1.01 % ID/g
Biodistribution: Lung ([2]; 2 h p.i.): 0.59 ± 0.22 % ID/g
Biodistribution: Muscle ([2]; 2 h p.i.): 0.05 ± 0.01 % ID/g
Biodistribution: Pancreas ([2]; 2 h p.i.): 0.18 ± 0.08 % ID/g
Biodistribution: Spleen ([2]; 2 h p.i.): 0.24 ± 0.04 % ID/g
Biodistribution: Stomach ([2]; 2 h p.i.): 0.32 ± 0.06 % ID/g
Biodistribution: Tumor ([2]; 2 h p.i.): 0.30 ± 0.03 % ID/g
Tumor/Blood ratio ([2]; 2 h p.i.): 1.25 and 1.25 ± 0.21
Tumor/Muscle ratio ([2]; 2 h p.i.): 5.64 and 5.64 ± 0.98
Biodistribution: Blood ([2]; 24 h p.i.): 0.28 ± 0.10 % ID/g
Biodistribution: Bone ([2]; 24 h p.i.): 0.14 ± 0.10 % ID/g
Biodistribution: Brain ([2]; 24 h p.i.): 0.05 ± 0.01 % ID/g
Biodistribution: Heart ([2]; 24 h p.i.): 0.46 ± 0.07 % ID/g
Biodistribution: Intestines ([2]; 24 h p.i.): 0.46 ± 0.04 % ID/g
Biodistribution: Kidney ([2]; 24 h p.i.): 0.72 ± 0.05 % ID/g
Biodistribution: Liver ([2]; 24 h p.i.): 1.86 ± 0.57 % ID/g
Biodistribution: Lung ([2]; 24 h p.i.): 0.65 ± 0.15 % ID/g
Biodistribution: Muscle ([2]; 24 h p.i.): 0.06 ± 0.02 % ID/g
Biodistribution: Pancreas ([2]; 24 h p.i.): 0.21 ± 0.06 % ID/g
Biodistribution: Spleen ([2]; 24 h p.i.): 0.42 ± 0.06 % ID/g
Biodistribution: Stomach ([2]; 24 h p.i.): 0.27 ± 0.11 % ID/g
Biodistribution: Tumor ([2]; 24 h p.i.): 0.27±0.05 % ID/g
Tumor/Blood ratio ([2]; 24 h p.i.): 0.99 ± 0.24
Tumor/Muscle ratio ([2]; 24 h p.i.): 4.07 ± 1.13
Blood clearance ([2]; both tumor models, nude mice, i.v.): rapid clearance in blood
Structure (SMILES): Cc1cccc(C)c1C(=O)OCC(=O)[C@H](CCCCNC(=O)CN1CCN(CC(=O)[O-])CCN(CC(=O)O)CCN(CC(=O)[O-])CC1)NC(=O)[C@H](Cc1ccccc1)NC(=O)OCc1ccccc1.[64Cu+2] [^64Cu-Z-FK(DOTA)-AOMK]
MicroPET tumor visualization / contrast [3]: low tumor uptake and poor tumor to normal tissue contrast
